Source: patent US4156724A, “N-acylamino-alpha-arylacetamido cephalosporins and antibacterial compositions and methods containing them” (Sumitomo Chemical Company, Limited, priority 1974, dated 1979)
In brackets after ≈: the same amount, converted by molar mass.

How the values were obtained:
Format in all cases: cell-based
Escherichia coli NIHJ = assay: Minimum Inhibitory Concentration, Escherichia coli NIHJ; conditions: Escherichia coli NIHJ; read-out: Minimum Inhibitory Concentration
Method: (§1) anti-microbial activity tests were carried out on the compounds obtained in the Examples.

[1] = system: Staphylococcus aureus FS 289; assay: Minimum Inhibitory Concentration, Staphylococcus aureus FS 289; conditions: FS289; Staphylococcus aureus FS 289, strain resistant to penicillin; read-out: Minimum Inhibitory Concentration
Method: as §1
*Staphylococcus aureus FS 289: strain resistant to penicillin

[2] = system: Staphylococcus aureus 209 P; assay: Minimum Inhibitory Concentration, Staphylococcus aureus 209 P; conditions: Staphylococcus aureus 209 P; read-out: Minimum Inhibitory Concentration
Method: as §1

[3] = system: Klebsiella pneumoniae 602; assay: Minimum Inhibitory Concentration, Klebsiella pneumoniae 602; conditions: Klebsiella pneumoniae, 602, Klebsiella pneumoniae 602; read-out: Minimum Inhibitory Concentration
Method: as §1

[4] = system: Pseudomonas aeruginosa 104; assay: Minimum Inhibitory Concentration, Pseudomonas aeruginosa 104; conditions: Pseudomonas aeruginosa 104; read-out: Minimum Inhibitory Concentration
Method: as §1

[5] = system: Enterobacter aerogeneus No. 75; assay: Minimum Inhibitory Concentration, Enterobacter aerogeneus No. 75; conditions: Enterobacter aerogeneus No. 75; read-out: Minimum Inhibitory Concentration
Method: as §1

Proteus vulgaris HX 19 = assay: Minimum Inhibitory Concentration, Proteus vulgaris HX 19; conditions: HX19; Proteus vulgaris HX 19; read-out: Minimum Inhibitory Concentration
Method: as §1

Serratia No. 72 = assay: Minimum Inhibitory Concentration, Serratia No. 72
Method: as §1

Compound	MIC (Escherichia coli NIHJ) [µg/mL]	MIC [1] [µg/mL]	MIC [2] [µg/mL]	MIC [3] [µg/mL]	MIC [4] [µg/mL]	MIC [5] [µg/mL]	MIC (Proteus vulgaris HX 19) [µg/mL]	MIC (Serratia No. 72) [µg/mL]
CSc1ccc2ncc(C(=O)N[C@@H](C(=O)N[C@@H]3C(=O)N4C(C(=O)O)=C(CSc5nnc(C)s5)CS[C@H]34)c3cccc(NC(N)=O)c3)c(O)c2n1 [Example 40]	3.13 (≈ 4.15 µM)	6.25 (≈ 8.29 µM)	0.78 (≈ 1.03 µM)	1.56 (≈ 2.07 µM)	3.13 (≈ 4.15 µM)	6.25 (≈ 8.29 µM)	0.1 (≈ 0.133 µM)	12.5 (≈ 16.6 µM)
COc1ccc2ncc(C(=O)NC(C(=O)NC3C(=O)N4C(C(=O)O)=C(CSc5nnc(CO)s5)CSC34)c3ccc(O)cc3)c(O)c2n1 (stereo not drawn) [Example 165]	3.13 (≈ 4.4 µM)	6.25 (≈ 8.78 µM)	0.78 (≈ 1.1 µM)	3.13 (≈ 4.4 µM)	3.13 (≈ 4.4 µM)	6.25 (≈ 8.78 µM)	0.2 (≈ 0.281 µM)	12.5 (≈ 17.6 µM)
Nc1cccc(C(NC(=O)c2ccnnc2O)C(=O)NC2C(=O)N3C(C(=O)O)=C(CSc4ccc(O)nn4)CSC23)c1 (stereo not drawn) [Example 87]	12.5 (≈ 20.5 µM)	6.25 (≈ 10.2 µM)	0.78 (≈ 1.28 µM)	6.25 (≈ 10.2 µM)	12.5 (≈ 20.5 µM)	12.5 (≈ 20.5 µM)	0.78 (≈ 1.28 µM)	50 (≈ 81.9 µM)
CC(=O)OCC1=C(C(=O)O)N2C(=O)[C@@H](NC(=O)[C@H](NC(=O)c3cccnc3O)c3ccc(NC(N)=O)cc3)[C@H]2SC1 [Example 3]	25 (≈ 42.8 µM)	6.25 (≈ 10.7 µM)	0.39 (≈ 0.667 µM)	25 (≈ 42.8 µM)	12.5 (≈ 21.4 µM)	25 (≈ 42.8 µM)	0.39 (≈ 0.667 µM)	> 200
COc1cnc2c(O)c(C(=O)NC(C(=O)NC3C(=O)N4C(C(=O)O)=C(CSc5nnnn5C)CSC34)c3ccc(O)cc3)cnc2n1 (stereo not drawn) [Example 172]	3.13 (≈ 4.6 µM)	12.5 (≈ 18.4 µM)	0.78 (≈ 1.15 µM)	3.13 (≈ 4.6 µM)	6.25 (≈ 9.18 µM)	6.25 (≈ 9.18 µM)	0.78 (≈ 1.15 µM)	25 (≈ 36.7 µM)
Cc1ccc2c(O)c(C(=O)N[C@@H](C(=O)N[C@@H]3C(=O)N4C(C(=O)O)=C(CSc5nnnn5C)CS[C@H]34)c3ccc(NC(N)=O)cc3)cnc2n1 [Example 26]	3.13 (≈ 4.44 µM)	6.25 (≈ 8.86 µM)	1.56 (≈ 2.21 µM)	3.13 (≈ 4.44 µM)	3.13 (≈ 4.44 µM)	6.25 (≈ 8.86 µM)	0.2 (≈ 0.283 µM)	12.5 (≈ 17.7 µM)
Cc1ccc2c(O)c(C(=O)NC(C(=O)NC3C(=O)N4C(C(=O)O)=C(CSc5nnc(C)s5)CSC34)c3ccc(CO)cc3)cnc2n1 (stereo not drawn) [Example 100]	3.13 (≈ 4.51 µM)	6.25 (≈ 9.01 µM)	1.56 (≈ 2.25 µM)	6.25 (≈ 9.01 µM)	6.25 (≈ 9.01 µM)	6.25 (≈ 9.01 µM)	0.39 (≈ 0.562 µM)	50 (≈ 72.1 µM)
CC(=O)OCC1=C(C(=O)O)N2C(=O)C(NC(=O)[C@H](NC(=O)c3cnc4nc(C)ccc4c3O)c3ccc(O)cc3)C2SC1 (stereo partly drawn) [Example 123]	6.25 (≈ 10.3 µM)	6.25 (≈ 10.3 µM)	0.78 (≈ 1.28 µM)	3.13 (≈ 5.15 µM)	6.25 (≈ 10.3 µM)	12.5 (≈ 20.6 µM)	0.78 (≈ 1.28 µM)	100 (≈ 165 µM)
Cc1nnc(SCC2=C(C(=O)O)N3C(=O)[C@@H](NC(=O)[C@H](NC(=O)c4ccnnc4O)c4cccc(NC(N)=O)c4)[C@H]3SC2)s1 [Example 15]	12.5 (≈ 19 µM)	6.25 (≈ 9.5 µM)	0.39 (≈ 0.593 µM)	3.13 (≈ 4.76 µM)	6.25 (≈ 9.5 µM)	6.25 (≈ 9.5 µM)	0.1 (≈ 0.152 µM)	50 (≈ 76 µM)
Cn1nnnc1SCC1=C(C(=O)O)N2C(=O)C(NC(=O)C(NC(=O)c3cnc4cccnc4c3O)c3ccc(CO)cc3)C2SC1 (stereo not drawn) [Example 97]	1.56 (≈ 2.35 µM)	6.25 (≈ 9.42 µM)	1.56 (≈ 2.35 µM)	1.56 (≈ 2.35 µM)	6.25 (≈ 9.42 µM)	6.25 (≈ 9.42 µM)	0.2 (≈ 0.301 µM)	25 (≈ 37.7 µM)
Cn1nnnc1SCC1=C(C(=O)O)N2C(=O)C(NC(=O)C(NC(=O)c3cnc4cncnc4c3O)c3ccc(CO)cc3)C2SC1 (stereo not drawn) [Example 108]	3.13 (≈ 4.71 µM)	12.5 (≈ 18.8 µM)	1.56 (≈ 2.35 µM)	3.13 (≈ 4.71 µM)	6.25 (≈ 9.4 µM)	6.25 (≈ 9.4 µM)	0.2 (≈ 0.301 µM)	25 (≈ 37.6 µM)
Cc1nnc(SCC2=C(C(=O)O)N3C(=O)C(NC(=O)[C@H](NC(=O)c4cnc5nc(C)c(C)nc5c4O)c4ccc(O)cc4)C3SC2)s1 (stereo partly drawn) [Example 148]	3.13 (≈ 4.51 µM)	12.5 (≈ 18 µM)	1.56 (≈ 2.25 µM)	3.13 (≈ 4.51 µM)	3.13 (≈ 4.51 µM)	6.25 (≈ 9 µM)	1.56 (≈ 2.25 µM)	25 (≈ 36 µM)
